In patent publication EP1145714A1, “DRUGS” (Takeda Chemical Industries, Ltd., priority 1998, dated 2000):

Test system: methotrexate-induced delayed vomiting in dogs
Assay: Methotrexate-induced delayed vomiting in dogs, oral dosing
Format: in vivo, beagle dogs
Conditions: methotrexate 2.5 mg/kg i.v.
Protocol: 3 or 4 beagle dogs (8.3 to 12.6 kg), male or female per one group were used. Methotrexate was intravenously administered at 2.5 mg/ml/kg. 8, 24 and 48 hours after methotrexate dosing, predetermined doses of the compound No. 3, ondansetron and 0.5% methyl cellulose solution were orally given. The compound No. 3 and 0.5 % methyl cellulose solution were dosed 30 minutes after a small amount of a feed was given to the animals, while ondansetron was dosed to the animals under fasting. The frequency of vomiting was counted in number, up to 72 hours after methotrexate dosing. The compound No. 3 was suspended in 0.5 % methyl cellulose solution and was then orally dosed at a ratio of 0.25 to 1 ml per 1 kg body weight. A predetermined volume of an ondansetron injection at a concentration of 0.2 w/v % was orally dosed. Additionally, 0.5 % methyl cellulose solution was orally given at a ratio of 1 ml per 1 kg body weight. The data relating to the frequency of vomiting, the latency and the time period from the occurrence of vomiting to the termination thereof were statistically analyzed by the Dunnett test, with reference to the difference from the control group.
The delayed vomiting suppression ratio and the suppression ratio of the total frequency of vomiting were calculated by the following formula.

Cc1nccn1CC1CCc2c(c3ccccc3n2C)C1=O (centres unmarked) [Ondansetron, ondansetron, reference compound]
Delayed vomiting suppression ratio (24 to 72 hours after MIX dosing) (10 mg/kg p.o. once daily): 21 % NS | Suppression ratio of total frequency of vomiting (0 to 72 hours after MTX dosing) (10 mg/kg p.o. once daily): 24 % NS | Duration (in hour; mean ± SD) (10 mg/kg p.o.): 27.8 ± 2.7 h | Frequency of vomiting (mean ± SD), Day 0 (0-24 hours) (10 mg/kg p.o.): 0 b | Frequency of vomiting (mean ± SD), Days 1 + 2 (24 - 72 hours) (10 mg/kg p.o.): 9.3 ± 2.3 | Latency (in hour; mean ± SD) (10 mg/kg p.o.): 28.6 ± 3.9 h | Frequency of vomiting (mean ± SD), Total frequency (10 mg/kg p.o., 72 hours): 9.3 ± 2.3 | Number of dogs with vomiting/number of tested dogs (10 mg/kg p.o., 72 hours): 3/3
